Values quoted from earlier work in patent US6579895B2, “Use of a celecoxib composition for fast pain relief” (Pharmacia Corporation, priority 2000, dated 2003).

What was measured:
post-surgical pain = conditions: ibuprofen 400 mg; e.g. post-surgical pain
plasma albumin = plasma albumin (Homo sapiens, UniProt P02768); conditions: following oral administration
plasma albumin, sequence (P02768 25-609): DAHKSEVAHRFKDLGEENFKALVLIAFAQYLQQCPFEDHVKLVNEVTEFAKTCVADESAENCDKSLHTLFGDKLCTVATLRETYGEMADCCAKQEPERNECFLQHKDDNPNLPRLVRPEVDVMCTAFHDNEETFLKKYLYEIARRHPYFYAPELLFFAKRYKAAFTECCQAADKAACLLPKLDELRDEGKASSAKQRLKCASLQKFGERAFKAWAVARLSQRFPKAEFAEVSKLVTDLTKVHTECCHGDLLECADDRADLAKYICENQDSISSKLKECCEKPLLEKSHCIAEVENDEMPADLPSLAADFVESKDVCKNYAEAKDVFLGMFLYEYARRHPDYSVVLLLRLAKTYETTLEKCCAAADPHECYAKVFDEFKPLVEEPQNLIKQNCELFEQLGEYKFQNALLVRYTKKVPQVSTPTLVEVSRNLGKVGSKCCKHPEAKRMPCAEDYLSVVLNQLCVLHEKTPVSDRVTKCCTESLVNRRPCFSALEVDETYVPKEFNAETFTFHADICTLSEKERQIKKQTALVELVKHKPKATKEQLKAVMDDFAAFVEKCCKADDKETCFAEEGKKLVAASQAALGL

CC(C)Cc1ccc(C(C)C(=O)O)cc1 (centres unmarked) [Ibuprofen, ibuprofen]
time after administration to an adequate level of suppression of pain (post-surgical pain): about 1 hour

Cc1ccc(-c2cc(C(F)(F)F)nn2-c2ccc(S(N)(=O)=O)cc2)cc1 [celecoxib, 4-[5-(4-methylphenyl)-3-(trifluoromethyl)-1H-pyrazol-1-y1]benzenesulfonamide]
binding to plasma albumin (plasma albumin): extensive binding
